According to US20190083521A1, “COMBINATION THERAPY FOR TREATING CANCER” (Epizyme, Inc., priority 2014, published 2019):
Where two headings read alike, the source gives them in different places.

Key:
MOLM-13 (MLL-AF9) cells [1] = test: Example 7 primary screen: 300 nM EPZ-5676 pre-treatment, second compound 72 h, ATPLite, GI100 shift; type: cell-based, human; details: MOLM-13 (MLL-AF9); 300 nM EPZ-5676 pre-treatment vs DMSO
Experimental: (§1) Cells were split using EPZ-5676 or DMSO containing growth media and further incubated for an additional 3-day pre-treatment time. Cells were finally seeded in growth media containing EPZ-5676 or DMSO in 384-well plates at 500 cell/well density. Cells were then equilibrated in incubators for 24 hours before treatment with a second compound. Treated assay plates were incubated with a second compound for 72 hours. After this time, plates were developed for endpoint analysis using ATPLite to measure ATP content, which is used as an indicator of cell viability.
(§2) “N/D” means the GI100 of the second compound could not be determined for both conditions and “-” means not tested.
(§3) Growth Inhibition (GI) as a measure of cell viability: The cell viability of vehicle was measured at the time of dosing the second agent (T0) and after seventy-two hours (T72). A GI reading of 0% represents no growth inhibition—cells treated with test compound as compared to T72 vehicle signals were measured. […] A GI 200% represents complete death of all cells in the culture well. Compounds reaching an activity plateau of GI 200% are considered cytotoxic. GI is calculated by applying the following test and equation: […]

SKM-1 (non-MLLr) cells [2] = test: as above; type: cell-based, human; details: SKM-1 (non-MLLr); 300 nM EPZ-5676 pre-treatment vs DMSO
Experimental: as §1, §2, §3

[3] = tested on: OCI-AML-4 (MLL-ENL) cells; test: as above; type: cell-based; details: OCI-AML-4 (MLL-ENL); 300 nM EPZ-5676 pre-treatment vs DMSO
Experimental: as §1, §2, §3

MOLM-13 (MLL-AF9) cells [4] = test: Example 7 retest: EPZ-5676 pre-treatment, second compound 72 h, Cell Titer Glo, growth inhibition; type: cell-based, human; design: GI100: unit not given here; details: for GI50: Homo sapiens; for Combination result with EPZ-5676, Retest: 150 nM EPZ-5676 pre-treatment vs DMSO
Experimental: (§4) Cells were then treated with a second compound for 72 hours. After this time, plates were developed for endpoint analysis using Cell Titer Glo to measure ATP content, which is used as an indicator of cell viability.
as §2
as §3, with “(T72).” for “(T72). A GI reading of 0% represents no growth inhibition—cells treated with test compound as compared to T72 vehicle signals were measured.”

SKM-1 (non-MLLr) cells [5] = test: as above; type: cell-based, human; design: GI100: unit not given here; details: for Combination result with EPZ-5676, Retest: 300 nM EPZ-5676 pre-treatment vs DMSO
Experimental: as §4, §2
as §3, with “(T72).” for “(T72). A GI reading of 0% represents no growth inhibition—cells treated with test compound as compared to T72 vehicle signals were measured.”

[6] = tested on: OCI-AML-4 (MLL-ENL) cells; test: as above; type: cell-based; details: for Combination result with EPZ-5676, Retest: 300 nM EPZ-5676 pre-treatment vs DMSO
Experimental: as §4, §2
as §3, with “(T72).” for “(T72). A GI reading of 0% represents no growth inhibition—cells treated with test compound as compared to T72 vehicle signals were measured.”

THP-1 (MLL-AF9) cells = test: as above; type: cell-based; design: GI100: unit not given here; details: NRAS G12D
Experimental: as §1, with “96-well plates.” for “384-well plates at 500 cell/well density.”, “treated” for “equilibrated in incubators for 24 hours before treatment with a second compound. Treated assay plates were incubated”, “Cell Titer Glo” for “ATPLite”
as §2, §3

ML-2 (MLL-AF6) cells = test: as above; type: cell-based; design: GI100: unit not given here
Experimental: as §4, §2
as §3, with “(T72).” for “(T72). A GI reading of 0% represents no growth inhibition—cells treated with test compound as compared to T72 vehicle signals were measured.”

RS4-11 (MLL-AF4) cells = test: as above; type: cell-based; design: GI100: unit not given here; details: for GI50: Homo sapiens
Experimental: as §4, §2
as §3, with “(T72).” for “(T72). A GI reading of 0% represents no growth inhibition—cells treated with test compound as compared to T72 vehicle signals were measured.”

[7] = MOLM-13 (MLL-AF9), Ras mutation status: None known, second compound, 72 h
[8] = MOLM-13 (MLL-AF9), Ras mutation status: None known
[9] = SKM-1 (non-MLLr), KRAS K117N (homo)
[10] = SKM-1 (non-MLLr), KRAS K117N (homo), second compound, 72 h
[11] = OCI-AML-4 (MLL-ENL), NRAS Q61R (het)
[12] = OCI-AML-4 (MLL-ENL), NRAS Q61R (het), second compound, 72 h
[13] = ML-2 (MLL-AF6), KRAS A146T (het), second compound, 72 h
[14] = RS4-11 (MLL-AF4), Ras mutation status: None known, second compound, 72 h

GI50 (MOLM-13 (MLL-AF9) cells [4]; [7]) [nM] | GI50 (SKM-1 (non-MLLr) cells [5]; [10]) [nM] | GI50 [6, 12] [nM] | GI50 (THP-1 (MLL-AF9) cells) [nM] | GI50 (RS4-11 (MLL-AF4) cells; [14]) [µM] | SMILES | Combination result with EPZ-5676, Primary screen (MOLM-13 (MLL-AF9) cells [1]) | Combination result with EPZ-5676, Primary screen (SKM-1 (non-MLLr) cells [2]) | Combination result with EPZ-5676, Primary screen [3] | Combination result with EPZ-5676, Retest (MOLM-13 (MLL-AF9) cells [4]; MOLM-13 (MLL-AF9)) | Result (combination with EPZ-5676) (MOLM-13 (MLL-AF9) cells [4]; [8]) | Combination result with EPZ-5676, Retest (SKM-1 (non-MLLr) cells [5]; SKM-1 (non-MLLr)) | Result (combination with EPZ-5676) (SKM-1 (non-MLLr) cells [5]; [9]) | Combination result with EPZ-5676, Retest ([6]; OCI-AML-4 (MLL-ENL)) | Result (combination with EPZ-5676) [6, 11] | GI50 (ML-2 (MLL-AF6) cells; [13]) [nM] | also measured
10 | 1 | 2 | 2 | > 10 | CC(=O)Nc1cccc(-n2c(=O)n(C3CC3)c(=O)c3c(Nc4ccc(I)cc4F)n(C)c(=O)c(C)c32)c1 [Trametinib] | Synergy (considered synergistic if the GI100 (Growth inhibition 100) value of the second compound decreased by 2-fold or more when EPZ-5676 was added as compared to the DMSO control) | Synergy (considered synergistic if the GI100 (Growth inhibition 100) value of the second compound decreased by 2-fold or more when EPZ-5676 was added as compared to the DMSO control) | Synergy (considered synergistic if the GI100 (Growth inhibition 100) value of the second compound decreased by 2-fold or more when EPZ-5676 was added as compared to the DMSO control) | Synergy (considered synergistic if the GI100 (Growth inhibition 100) value of the second compound decreased by 2-fold or more when EPZ-5676 was added as compared to the DMSO control) | Synergy (considered synergistic if the GI100 (Growth inhibition 100) value of the second compound decreased by 2-fold or more when EPZ-5676 was added as compared to the DMSO control) | Synergy (considered synergistic if the GI100 (Growth inhibition 100) value of the second compound decreased by 2-fold or more when EPZ-5676 was added as compared to the DMSO control) | Synergy (considered synergistic if the GI100 (Growth inhibition 100) value of the second compound decreased by 2-fold or more when EPZ-5676 was added as compared to the DMSO control) | Synergy (considered synergistic if the GI100 (Growth inhibition 100) value of the second compound decreased by 2-fold or more when EPZ-5676 was added as compared to the DMSO control) | Synergy (considered synergistic if the GI100 (Growth inhibition 100) value of the second compound decreased by 2-fold or more when EPZ-5676 was added as compared to the DMSO control) | 1 | GI100 (MOLM-13 (MLL-AF9) cells [4]): 0.03; GI100 (SKM-1 (non-MLLr) cells [5]): 0.004; GI100 [6]: 0.009; GI100 (ML-2 (MLL-AF6) cells): 0.001; Result (combination with EPZ-5676) (ML-2 (MLL-AF6) cells; ML-2 (MLL-AF6), KRAS A146T (het)): Synergy (considered synergistic if the GI100 (Growth inhibition 100) value of the second compound decreased by 2-fold or more when EPZ-5676 was added as compared to the DMSO control); GI100 (RS4-11 (MLL-AF4) cells): >10
1250 | 20 | 116 | 160 | > 10 | Cn1cnc2c(F)c(Nc3ccc(Br)cc3Cl)c(C(=O)NOCCO)cc21 [Selumetinib (AZD6244), Selumetinib] | Synergy (considered synergistic if the GI100 (Growth inhibition 100) value of the second compound decreased by 2-fold or more when EPZ-5676 was added as compared to the DMSO control) | Synergy (considered synergistic if the GI100 (Growth inhibition 100) value of the second compound decreased by 2-fold or more when EPZ-5676 was added as compared to the DMSO control) | Synergy (considered synergistic if the GI100 (Growth inhibition 100) value of the second compound decreased by 2-fold or more when EPZ-5676 was added as compared to the DMSO control) | Synergy (considered synergistic if the GI100 (Growth inhibition 100) value of the second compound decreased by 2-fold or more when EPZ-5676 was added as compared to the DMSO control) | Synergy (considered synergistic if the GI100 (Growth inhibition 100) value of the second compound decreased by 2-fold or more when EPZ-5676 was added as compared to the DMSO control) | Synergy (considered synergistic if the GI100 (Growth inhibition 100) value of the second compound decreased by 2-fold or more when EPZ-5676 was added as compared to the DMSO control) | Synergy (considered synergistic if the GI100 (Growth inhibition 100) value of the second compound decreased by 2-fold or more when EPZ-5676 was added as compared to the DMSO control) | Synergy (considered synergistic if the GI100 (Growth inhibition 100) value of the second compound decreased by 2-fold or more when EPZ-5676 was added as compared to the DMSO control) | Synergy (considered synergistic if the GI100 (Growth inhibition 100) value of the second compound decreased by 2-fold or more when EPZ-5676 was added as compared to the DMSO control) | 40 | GI100 (MOLM-13 (MLL-AF9) cells [4]; [7]): 7.28; GI100 (SKM-1 (non-MLLr) cells [5]; [10]): 0.12; GI100 [6, 12]: 3.169; GI100 (THP-1 (MLL-AF9) cells): >10; GI100 (ML-2 (MLL-AF6) cells; [13]): 0.93; GI100 (RS4-11 (MLL-AF4) cells; [14]): >10
